Reference: ChEMBL document CHEMBL4808220, “Discovery of novel pyrazolopyrimidine derivatives as potent mTOR/HDAC bi-functional inhibitors via pharmacophore-merging strategy” (Bioorg Med Chem Lett, 2021)
Active and inactive are the calls of the source. No cut-off for these calls is given here.

target: T1, Serine/threonine-protein kinase mTOR (Homo sapiens, UniProt P42345); assay: Inhibition of mTOR (unknown origin)

SMILES	IC50 [nM]
Nc1ncnc2c1c(-c1cnc3ccccc3c1)nn2CCCCC(=O)NO	677
Nc1nc2cc(-c3nn(Cc4ccc(C(=O)NO)cc4)c4ncnc(N)c34)ccc2o1	18
Nc1nc2cc(-c3nn(CC4CCN(C(=O)c5ccc(C(=O)NO)cc5)CC4)c4ncnc(N)c34)ccc2o1	0.84
Nc1ncc(-c2nn(CCCCC(=O)NO)c3ncnc(N)c23)cn1	> 1000
Nc1nc2cc(-c3nn(CCCCCCC(=O)NO)c4ncnc(N)c34)ccc2o1	1.7
Nc1ncnc2c1c(-c1cnc3ccccc3c1)nn2CCCCCCC(=O)NO	619
Nc1nc2cc(-c3nn(Cc4ccc(C(=O)NO)o4)c4ncnc(N)c34)ccc2o1	18
Nc1nc2cc(-c3nn(CC4CCN(C(=O)c5ccc(C(=O)NO)s5)CC4)c4ncnc(N)c34)ccc2o1	0.4
Nc1ccc(-c2nn(CCCCCCC(=O)NO)c3ncnc(N)c23)cn1	151
Nc1nc2cc(-c3nn(Cc4ccc(C(=O)NO)s4)c4ncnc(N)c34)ccc2o1	27
Nc1ccc(-c2nn(CCCCC(=O)NO)c3ncnc(N)c23)cn1	> 1000
Nc1nc2cc(-c3nn(Cc4ccc(C(=O)NO)cn4)c4ncnc(N)c34)ccc2o1	25
Nc1nc2cc(-c3nn(CC4CCN(C(=O)CCCCC(=O)NO)CC4)c4ncnc(N)c34)ccc2o1	1.9
Nc1nc2cc(-c3nn(CC4CCN(c5ncc(C(=O)NO)cn5)CC4)c4ncnc(N)c34)ccc2o1	0.49
Nc1ncc(-c2nn(CCCCCCC(=O)NO)c3ncnc(N)c23)cn1	> 1000
Nc1nc2cc(-c3nn(CCCCC(=O)NO)c4ncnc(N)c34)ccc2o1	3.76

target: Histone deacetylase 1 (Homo sapiens, UniProt Q13547); assay: Inhibition of HDAC1 (unknown origin)
Sequence (Q13547 whole entry): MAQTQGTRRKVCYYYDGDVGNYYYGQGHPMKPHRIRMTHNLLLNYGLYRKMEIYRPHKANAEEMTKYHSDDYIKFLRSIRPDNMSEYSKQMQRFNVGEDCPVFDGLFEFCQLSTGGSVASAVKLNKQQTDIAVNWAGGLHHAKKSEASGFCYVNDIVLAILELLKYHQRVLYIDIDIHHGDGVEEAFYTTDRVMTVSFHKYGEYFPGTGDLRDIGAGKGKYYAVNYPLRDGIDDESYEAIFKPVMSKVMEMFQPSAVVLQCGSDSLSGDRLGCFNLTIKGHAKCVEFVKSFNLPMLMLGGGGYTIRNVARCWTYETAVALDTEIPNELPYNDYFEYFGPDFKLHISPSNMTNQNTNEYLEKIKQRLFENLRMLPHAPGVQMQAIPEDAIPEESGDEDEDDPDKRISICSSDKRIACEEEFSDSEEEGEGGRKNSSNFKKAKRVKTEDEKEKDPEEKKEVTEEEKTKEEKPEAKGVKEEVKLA

SMILES	IC50 [nM]
Nc1ncnc2c1c(-c1cnc3ccccc3c1)nn2CCCCC(=O)NO	65
Nc1nc2cc(-c3nn(Cc4ccc(C(=O)NO)cc4)c4ncnc(N)c34)ccc2o1	5
Nc1nc2cc(-c3nn(CC4CCN(C(=O)c5ccc(C(=O)NO)cc5)CC4)c4ncnc(N)c34)ccc2o1	12
Nc1ncc(-c2nn(CCCCC(=O)NO)c3ncnc(N)c23)cn1	479
Nc1nc2cc(-c3nn(CCCCCCC(=O)NO)c4ncnc(N)c34)ccc2o1	0.78
Nc1ncnc2c1c(-c1cnc3ccccc3c1)nn2CCCCCCC(=O)NO	4.1
Nc1nc2cc(-c3nn(Cc4ccc(C(=O)NO)o4)c4ncnc(N)c34)ccc2o1	> 1000
Nc1nc2cc(-c3nn(CC4CCN(C(=O)c5ccc(C(=O)NO)s5)CC4)c4ncnc(N)c34)ccc2o1	5.9
Nc1ccc(-c2nn(CCCCCCC(=O)NO)c3ncnc(N)c23)cn1	7.3
Nc1nc2cc(-c3nn(Cc4ccc(C(=O)NO)s4)c4ncnc(N)c34)ccc2o1	12
Nc1ccc(-c2nn(CCCCC(=O)NO)c3ncnc(N)c23)cn1	> 1000
Nc1nc2cc(-c3nn(Cc4ccc(C(=O)NO)cn4)c4ncnc(N)c34)ccc2o1	11
Nc1nc2cc(-c3nn(CC4CCN(C(=O)CCCCC(=O)NO)CC4)c4ncnc(N)c34)ccc2o1	65
Nc1nc2cc(-c3nn(CC4CCN(c5ncc(C(=O)NO)cn5)CC4)c4ncnc(N)c34)ccc2o1	0.91
Nc1ncc(-c2nn(CCCCCCC(=O)NO)c3ncnc(N)c23)cn1	11
Nc1nc2cc(-c3nn(CCCCC(=O)NO)c4ncnc(N)c34)ccc2o1	83

system: A549; assay: Antiproliferative activity against human A549 cells assessed as reduction in cell viability; type: functional, cell-based

SMILES	IC50 [nM]
Nc1nc2cc(-c3nn(CCCCCCC(=O)NO)c4ncnc(N)c34)ccc2o1	2860
Nc1nc2cc(-c3nn(CC4CCN(C(=O)c5ccc(C(=O)NO)s5)CC4)c4ncnc(N)c34)ccc2o1	5900
Nc1nc2cc(-c3nn(CC4CCN(c5ncc(C(=O)NO)cn5)CC4)c4ncnc(N)c34)ccc2o1	2160

system: HCT-116; assay: Antiproliferative activity against human HCT-116 cells assessed as reduction in cell viability; type: functional, cell-based

SMILES	IC50 [nM]
Nc1nc2cc(-c3nn(CCCCCCC(=O)NO)c4ncnc(N)c34)ccc2o1	3780
Nc1nc2cc(-c3nn(CC4CCN(C(=O)c5ccc(C(=O)NO)s5)CC4)c4ncnc(N)c34)ccc2o1	> 10000
Nc1nc2cc(-c3nn(CC4CCN(c5ncc(C(=O)NO)cn5)CC4)c4ncnc(N)c34)ccc2o1	3850

system: MV4-11; assay: Antiproliferative activity against human MV4-11 cells harboring FLT3-ITD mutant assessed as reduction in cell viability; type: functional, cell-based

SMILES	IC50 [nM]
Nc1nc2cc(-c3nn(CCCCCCC(=O)NO)c4ncnc(N)c34)ccc2o1	4130
Nc1nc2cc(-c3nn(CC4CCN(C(=O)c5ccc(C(=O)NO)s5)CC4)c4ncnc(N)c34)ccc2o1	5210
Nc1nc2cc(-c3nn(CC4CCN(c5ncc(C(=O)NO)cn5)CC4)c4ncnc(N)c34)ccc2o1	1740

target: T1, Serine/threonine-protein kinase mTOR; assay: Inhibition of mTOR complexes in human MV4-11 cells assessed as suppression of phosphorylation of S6 ribosomal at Ser235/236 residues at 300 nM by Western blot analysis relative to control; type: cell-based

SMILES	inhibition
Nc1nc2cc(-c3nn(CC4CCN(c5ncc(C(=O)NO)cn5)CC4)c4ncnc(N)c34)ccc2o1	Active

target: T1, Serine/threonine-protein kinase mTOR; assay: Inhibition of mTOR complexes in human MV4-11 cells assessed as reduction in p-AKT(Ser473) protein level at 300 nM by Western blot analysis relative to control; type: cell-based

SMILES	inhibition
Nc1nc2cc(-c3nn(CC4CCN(c5ncc(C(=O)NO)cn5)CC4)c4ncnc(N)c34)ccc2o1	Active

target: T2, Histone deacetylase (Homo sapiens) (UniProt Q13547+O15379+Q9UBN7+Q92769+Q9UQL6+Q8WUI4+Q9BY41+Q96DB2+P56524+Q9UKV0+Q969S8); assay: Inhibition of HDAC in human MV4-11 cells assessed as increase in acetylation of histone H3 (ac-H3 K9) by Western blot analysis relative to control; type: cell-based

SMILES	inhibition
Nc1nc2cc(-c3nn(CC4CCN(c5ncc(C(=O)NO)cn5)CC4)c4ncnc(N)c34)ccc2o1	Dose-Dependent Effect

target: T2, Histone deacetylase (Homo sapiens); assay: Inhibition of HDAC in human MV4-11 cells assessed as increase in acetylation of alpha-tubulin at Lys40 residue by Western blot analysis relative to control; type: cell-based

SMILES	inhibition
Nc1nc2cc(-c3nn(CC4CCN(c5ncc(C(=O)NO)cn5)CC4)c4ncnc(N)c34)ccc2o1	Dose-Dependent Effect

target: T3, Protein deacetylase HDAC6 (Homo sapiens, UniProt Q9UBN7); assay: Inhibition of HDAC6 (unknown origin)
T3 sequence (Q9UBN7 whole entry): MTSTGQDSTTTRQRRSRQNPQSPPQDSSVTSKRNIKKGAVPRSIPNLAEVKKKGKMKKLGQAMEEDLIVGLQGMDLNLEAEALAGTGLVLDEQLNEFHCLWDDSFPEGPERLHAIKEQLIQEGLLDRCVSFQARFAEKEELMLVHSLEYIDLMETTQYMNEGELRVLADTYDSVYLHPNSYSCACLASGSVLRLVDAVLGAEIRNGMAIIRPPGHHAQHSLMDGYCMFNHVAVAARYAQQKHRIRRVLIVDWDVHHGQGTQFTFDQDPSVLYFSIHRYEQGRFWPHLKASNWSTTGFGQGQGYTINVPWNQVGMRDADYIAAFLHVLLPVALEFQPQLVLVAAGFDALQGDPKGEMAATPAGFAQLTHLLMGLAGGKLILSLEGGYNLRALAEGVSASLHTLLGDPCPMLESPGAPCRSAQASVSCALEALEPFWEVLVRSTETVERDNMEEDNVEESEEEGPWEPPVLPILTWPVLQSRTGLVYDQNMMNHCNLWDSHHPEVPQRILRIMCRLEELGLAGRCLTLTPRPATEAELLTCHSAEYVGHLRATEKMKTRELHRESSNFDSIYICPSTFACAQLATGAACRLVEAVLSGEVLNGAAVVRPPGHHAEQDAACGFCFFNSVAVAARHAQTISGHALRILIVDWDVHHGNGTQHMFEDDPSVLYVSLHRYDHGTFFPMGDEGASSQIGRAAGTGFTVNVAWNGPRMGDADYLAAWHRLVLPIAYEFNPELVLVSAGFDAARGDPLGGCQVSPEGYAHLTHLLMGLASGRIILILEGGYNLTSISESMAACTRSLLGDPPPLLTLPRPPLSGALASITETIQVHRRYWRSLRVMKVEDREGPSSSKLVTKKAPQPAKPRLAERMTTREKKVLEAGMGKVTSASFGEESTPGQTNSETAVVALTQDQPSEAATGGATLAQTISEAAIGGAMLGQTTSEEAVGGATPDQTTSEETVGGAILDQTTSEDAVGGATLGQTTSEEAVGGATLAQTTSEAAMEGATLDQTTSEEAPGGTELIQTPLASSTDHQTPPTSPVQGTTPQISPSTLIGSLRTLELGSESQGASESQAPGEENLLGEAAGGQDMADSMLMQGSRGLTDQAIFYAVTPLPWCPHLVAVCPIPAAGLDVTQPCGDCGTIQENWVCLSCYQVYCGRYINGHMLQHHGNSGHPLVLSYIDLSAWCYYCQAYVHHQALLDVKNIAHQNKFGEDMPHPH

SMILES	IC50 [nM]
Nc1nc2cc(-c3nn(CCCCCCC(=O)NO)c4ncnc(N)c34)ccc2o1	1.5
Nc1nc2cc(-c3nn(CC4CCN(c5ncc(C(=O)NO)cn5)CC4)c4ncnc(N)c34)ccc2o1	86

target: T4, Histone deacetylase 8 (Homo sapiens, UniProt Q9BY41); assay: Inhibition of HDAC8 (unknown origin)
T4 sequence (Q9BY41 whole entry): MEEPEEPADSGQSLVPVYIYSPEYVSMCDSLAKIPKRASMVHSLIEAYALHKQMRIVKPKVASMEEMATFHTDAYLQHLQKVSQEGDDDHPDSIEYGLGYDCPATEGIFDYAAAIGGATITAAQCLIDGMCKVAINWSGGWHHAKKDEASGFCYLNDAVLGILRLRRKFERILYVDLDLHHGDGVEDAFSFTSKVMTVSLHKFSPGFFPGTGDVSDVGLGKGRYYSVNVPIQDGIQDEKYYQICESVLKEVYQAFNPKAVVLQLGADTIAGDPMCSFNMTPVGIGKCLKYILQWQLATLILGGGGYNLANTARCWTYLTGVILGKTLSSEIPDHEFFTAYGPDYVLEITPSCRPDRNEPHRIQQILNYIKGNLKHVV

SMILES	IC50 [nM]
Nc1nc2cc(-c3nn(CCCCCCC(=O)NO)c4ncnc(N)c34)ccc2o1	21
Nc1nc2cc(-c3nn(CC4CCN(c5ncc(C(=O)NO)cn5)CC4)c4ncnc(N)c34)ccc2o1	27

target: T5, Histone deacetylase 11 (Homo sapiens, UniProt Q96DB2); assay: Inhibition of HDAC11 (unknown origin)
T5 sequence (Q96DB2 whole entry): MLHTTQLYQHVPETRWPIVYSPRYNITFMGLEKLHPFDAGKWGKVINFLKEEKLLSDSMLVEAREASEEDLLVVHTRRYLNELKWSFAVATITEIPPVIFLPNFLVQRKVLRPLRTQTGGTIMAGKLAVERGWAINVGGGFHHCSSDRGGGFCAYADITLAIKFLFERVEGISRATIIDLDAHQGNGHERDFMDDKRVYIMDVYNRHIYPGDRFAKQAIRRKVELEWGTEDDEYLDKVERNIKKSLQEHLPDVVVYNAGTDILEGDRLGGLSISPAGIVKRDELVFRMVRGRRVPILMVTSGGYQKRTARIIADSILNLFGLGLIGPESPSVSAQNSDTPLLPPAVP

SMILES	IC50 [nM]
Nc1nc2cc(-c3nn(CCCCCCC(=O)NO)c4ncnc(N)c34)ccc2o1	> 1000
Nc1nc2cc(-c3nn(CC4CCN(c5ncc(C(=O)NO)cn5)CC4)c4ncnc(N)c34)ccc2o1	> 1000
